Measured values from US20240238425A1, “HSD17B13 Inhibitors and/or Degraders” (Pfizer Inc., priority 2022, published 2024).
Structures can show the parent of a compound that is named as a salt.

System: HiBiT-HSD17β13 fusion protein (N-terminal HiBiT-tagged HSD17β13 isoform D) in Huh7 HiBiT-HSD17β13 OE cells
Experiment: Whole-cell Huh7-HSD17B13 HiBiT assay (degrader potency and maximal efficacy, luminescence readout)
Assay type: cell-based, human
Settings: 24 hour incubation, geometric mean, * = geometric mean for all forms tested (parent and salt forms); for DC50: read-out: Huh7_HIBIT-HSD17β13_DC50 GMean DC50; for Huh7_HIBIT-HSD17β13_DC50 GMean Asymptote Maximum: max. concentration 1 μM
How it was run: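 Huh7 cells stably overexpressing N-terminal HiBiT-tagged HSD17β13 isoform D, clone matched to primary hepatocyte expression, were exposed to an 11-point, 1 in 3.162 dilution series (top 1 μM final) for 24 h at 37° C. Lytic HiBiT luminescence was normalised to DMSO and parental-cell controls; DC50 from four-parameter logistic fit, with CellTiter-Glo counter screen.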

Row | DC50 [nM] | Compound | Huh7_HIBIT-HSD17β13_DC50 GMean Asymptote Maximum
1 | 0.62 | Cn1c(=O)n(C2CCC(=O)NC2=O)c2ccc(CCCN3CC(n4cc(-c5ccc6cn([C@H]7CC[C@H](CNC(=O)c8cc(F)c(O)c(F)c8F)CC7)nc6c5)cn4)C3)cc21 (mixture of isomers) [Example 33, N-{[(1r,4r)-4-(6-{1-[1-(3-{1-[(3RS)-2,6-dioxopiperidin-3-yl]-3-methyl-2-oxo-2,3-dihydro-1H-benzimidazol-5-yl}propyl)azetidin-3-yl]-1H-pyrazol-4-yl}-2H-indazol-2-yl)cyclohexyl]methyl}-2,3,5-trifluoro-4-hydroxybenzamide] | 86%
2 | 1.4 | Cc1ccc(C(=O)N2CCC3(CCC(N4CCN(c5ccc6cn([C@H]7CC[C@H](CNC(=O)c8cc(F)c(O)c(F)c8F)CC7)nc6c5)CC4)C3)CC2)cc1N1CCC(=O)NC1=O (some centres unmarked) [Example 113, N-({(1r,4r)-4-[6-(4-{8-[3-(2,4-dioxo-1,3-diazinan-1-yl)-4-methylbenzoyl]-8-azaspiro[4.5]decan-2-yl}piperazin-1-yl)-2H-indazol-2-yl]cyclohexyl}methyl)-2,3,5-trifluoro-4-hydroxybenzamide, formate salt] | 79%
3 | 0.4 | COc1cc(-c2nc([C@]34CC[C@](CNC(=O)c5cc(F)c(O)c(F)c5F)(CC3)CC4)no2)nc(N2CCN(CCCc3ccc4c(c3)n(C)c(=O)n4C3CCC(=O)NC3=O)CC2)n1 (mixture of isomers) [Example 128, N-{[4-(5-{2-[4-(3-{1-[(3RS)-2,6-dioxopiperidin-3-yl]-3-methyl-2-oxo-2,3-dihydro-1H-benzimidazol-5-yl}propyl)piperazin-1-yl]-6-methoxypyrimidin-4-yl}-1,2,4-oxadiazol-3-yl)bicyclo[2.2.2]octan-1-yl]methyl}-2,3,5-trifluoro-4-hydroxybenzamide] | 79%
4 | 0.65 | Cn1c(=O)n(C2CCC(=O)NC2=O)c2ccc(CCN3CCN(c4nccc(-c5nc([C@]67CC[C@](CNC(=O)c8cc(F)c(O)c(F)c8F)(CC6)CC7)no5)n4)CC3)cc21 (mixture of isomers) [Example 60, N-{[4-(5-{2-[4-(2-{1-[(3RS)-2,6-dioxopiperidin-3-yl]-3-methyl-2-oxo-2,3-dihydro-1H-benzimidazol-5-yl}ethyl)piperazin-1-yl]pyrimidin-4-yl}-1,2,4-oxadiazol-3-yl)bicyclo[2.2.2]octan-1-yl]methyl}-2,3,5-trifluoro-4-hydroxybenzamide, trifluoroacetate salt] | 78%
5 | 0.31 | Cn1c(=O)n(C2CCC(=O)NC2=O)c2ccc(CCCN3CCN(c4nccc(-c5csc(C67CCC(CNC(=O)c8cc(F)c(O)c(F)c8F)(CC6)CC7)n5)n4)CC3)cc21 (racemic) [Example 5, N-{[4-(4-{2-[4-(3-{1-[(3RS)-2,6-Dioxopiperidin-3-yl]-3-methyl-2-oxo-2,3-dihydro-1H-benzimidazol-5-yl}propyl)piperazin-1-yl]pyrimidin-4-yl}-1,3-thiazol-2-yl)bicyclo[2.2.2]octan-1-yl]methyl}-2,3,5-trifluoro-4-hydroxybenzamide] | 82%
6 | 0.15 | Cn1c(=O)n(C2CCC(=O)NC2=O)c2ccc(CCCN3CCN(c4cnc(-c5ccc6cn([C@H]7CC[C@H](CNC(=O)c8cc(F)c(O)c(F)c8F)CC7)nc6c5)nc4)CC3)cc21 (mixture of isomers) [Example 76, N-{[(1r,4r)-4-(6-{5-[4-(3-{1-[(3RS)-2,6-dioxopiperidin-3-yl]-3-methyl-2-oxo-2,3-dihydro-1H-benzimidazol-5-yl}propyl)piperazin-1-yl]pyrimidin-2-yl}-2H-indazol-2-yl)cyclohexyl]methyl}-2,3,5-trifluoro-4-hydroxybenzamide, trifluoroacetate salt] | 89* %
7 | 0.5 | Cn1c(=O)n(C2CCC(=O)NC2=O)c2ccc(CN3CCN(c4ncc(-c5ccc6cn([C@]78CC[C@](CNC(=O)c9cc(F)c(O)c(F)c9F)(CC7)CC8)nc6c5)cn4)CC3)cc21 (mixture of isomers) [Example 83, N-{[4-(6-{2-[4-({1-[(3RS)-2,6-dioxopiperidin-3-yl]-3-methyl-2-oxo-2,3-dihydro-1H-benzimidazol-5-yl}methyl)piperazin-1-yl]pyrimidin-5-yl}-2H-indazol-2-yl)bicyclo[2.2.2]octan-1-yl]methyl}-2,3,5-trifluoro-4-hydroxybenzamide] | 81%
8 | 2.9 | O=C1CCN(c2cc(C(=O)N3CCC4(CCC(N5CCN(c6ccc7cn([C@H]8CC[C@H](CNC(=O)c9cc(F)c(O)c(F)c9)CC8)nc7c6)CC5)CC4)CC3)ccc2Cl)C(=O)N1 [Example 110, N-({(1r,4r)-4-[6-(4-{3-[4-chloro-3-(2,4-dioxo-1,3-diazinan-1-yl)benzoyl]-3-azaspiro[5.5]undecan-9-yl}piperazin-1-yl)-2H-indazol-2-yl]cyclohexyl}methyl)-3,5-difluoro-4-hydroxybenzamide] | 77%
9 | 4.1 | Cc1ccc(C(=O)N2CCC(CCCN3CCN(c4ccc5cn([C@H]6CC[C@H](CNC(=O)c7cc(F)c(O)c(F)c7F)CC6)nc5c4)CC3)CC2)cc1N1CCC(=O)NC1=O [Example 40, N-{[(1r,4r)-4-{6-[4-(3-{1-[3-(2,4-dioxo-1,3-diazinan-1-yl)-4-methylbenzoyl]piperidin-4-yl}propyl)piperazin-1-yl]-2H-indazol-2-yl}cyclohexyl]methyl}-2,3,5-trifluoro-4-hydroxybenzamide, trifluoroacetate salt] | 74%
10 | 2 | Cc1ccc(C(=O)N2CCC3(CC2)CC(N2CCN(c4ccc5cn([C@H]6CC[C@H](CNC(=O)c7cc(F)c(O)c(F)c7F)CC6)nc5c4)CC2)C3)cc1N1CCC(=O)NC1=O [Example 82, N-({(1r,4r)-4-[6-(4-{7-[3-(2,4-dioxo-1,3-diazinan-1-yl)-4-methylbenzoyl]-7-azaspiro[3.5]nonan-2-yl}piperazin-1-yl)-2H-indazol-2-yl]cyclohexyl}methyl)-2,3,5-trifluoro-4-hydroxybenzamide, trifluoroacetate salt] | 74%
11 | 0.16 | Cn1c(=O)n(C2CCC(=O)NC2=O)c2ccc(CCCN3Cc4ccc(-c5ccc6cn(C7CCC(CNC(=O)c8cc(F)c(O)c(F)c8F)CC7)nc6c5)nc4C3)cc21 (racemic) [Example 2, N-{[(1r,4r)-4-{6-[6-(3-{1-[(3RS)-2,6-Dioxopiperidin-3-yl]-3-methyl-2-oxo-2,3-dihydro-1H-benzimidazol-5-yl}propyl)-6,7-dihydro-5H-pyrrolo[3,4-b]pyridin-2-yl]-2H-indazol-2-yl}cyclohexyl]methyl}-2,3,5-trifluoro-4-hydroxybenzamide] | 83* %
12 | 1.1 | Cc1ccc(C(=O)N2CCC3(CCC(N4CCN(c5ccc6cn([C@H]7CC[C@H](CNC(=O)c8cc(F)c(O)c(F)c8)CC7)nc6c5)CC4)CC3)CC2)cc1N1CCC(=O)NC1=O [Example 109, N-({(1r,4r)-4-[6-(4-{3-[3-(2,4-dioxo-1,3-diazinan-1-yl)-4-methylbenzoyl]-3-azaspiro[5.5]undecan-9-yl}piperazin-1-yl)-2H-indazol-2-yl]cyclohexyl}methyl)-3,5-difluoro-4-hydroxybenzamide] | 81%
13 | 0.18 | Cl.Cn1c(=O)n(C2CCC(=O)NC2=O)c2ccc(CCCN3CCN(c4ncc(-c5ccc6cn([C@H]7CC[C@H](CNC(=O)c8cc(F)c(O)c(F)c8F)CC7)nc6c5)cn4)CC3)cc21 (mixture of isomers) [Example 24, N-{[(1r,4r)-4-(6-{2-[4-(3-{1-[(3RS)-2,6-dioxopiperidin-3-yl]-3-methyl-2-oxo-2,3-dihydro-1H-benzimidazol-5-yl}propyl)piperazin-1-yl]pyrimidin-5-yl}-2H-indazol-2-yl)cyclohexyl]methyl}-2,3,5-trifluoro-4-hydroxybenzamide, hydrochloride salt] | 88* %
14 | 3.8 | Cn1c(=O)n(C2CCC(=O)NC2=O)c2ccc(CCCN3CC(F)(F)CC4(CCN(c5ccc6cn([C@H]7CC[C@H](CNC(=O)c8cc(F)c(O)c(F)c8F)CC7)nc6c5)C4=O)C3)cc21 (mixture of isomers) [Example 65, N-{[(1r,4r)-4-{6-[7-(3-{1-[(3RS)-2,6-dioxopiperidin-3-yl]-3-methyl-2-oxo-2,3-dihydro-1H-benzimidazol-5-yl}propyl)-9,9-difluoro-1-oxo-2,7-diazaspiro[4.5]decan-2-yl]-2H-indazol-2-yl}cyclohexyl]methyl}-2,3,5-trifluoro-4-hydroxybenzamide, trifluoroacetate salt] | 81%

Row | Compound | DC50 [nM] | Huh7_HIBIT-HSD17β13_DC50 GMean Asymptote Maximum
15 | Cn1c(=O)n(C2CCC(=O)NC2=O)c2ccc(CCCN3CCN(c4ccc(-c5noc(C67CCC(CNC(=O)c8cc(F)c(O)c(F)c8F)(CC6)CC7)n5)nn4)CC3)cc21.O=C(O)C(F)(F)F (racemic) [Example 15, N-{[4-(3-{6-[4-(3-{1-[(3RS)-2,6-Dioxopiperidin-3-yl]-3-methyl-2-oxo-2,3-dihydro-1H-benzimidazol-5-yl}propyl)piperazin-1-yl]pyridazin-3-yl}-1,2,4-oxadiazol-5-yl)bicyclo[2.2.2]octan-1-yl]methyl}-2,3,5-trifluoro-4-hydroxybenzamide, trifluoroacetate salt] | 0.31 | 85%
16 | O=C(O)C(F)(F)F.O=C1CCN(c2cnn3cc(CCCN4CCN(c5ncc(-c6ccc7cn(C89CCC(CNC(=O)c%10cc(F)c(O)c(F)c%10F)(CC8)CC9)nc7c6)cn5)CC4)ccc23)C(=O)N1 [Example 105, N-[(4-{6-[2-(4-{3-[3-(2,4-dioxo-1,3-diazinan-1-yl)pyrazolo[1,5-a]pyridin-6-yl]propyl}piperazin-1-yl)pyrimidin-5-yl]-2H-indazol-2-yl}bicyclo[2.2.2]octan-1-yl)methyl]-2,3,5-trifluoro-4-hydroxybenzamide, trifluoroacetate salt] | 1.3 | 76%
